Measurements: patent publication US12559492B2, “BRAF degraders” (C4 Therapeutics, Inc., priority 2020, dated 2026)

Biological target: BRAF^V600E protein (Homo sapiens, UniProt P15056, V600E)
Assay: HiBiT cellular BRAF V600E degradation assay
Assay type: cell-based
Details: 24 h incubation; for DC50: A375.10 cells (HiBiT tag knocked in at N-terminal of BRAF V600E), concentration at which 50% of total cellular BRAF V600E is degraded; for Emax: A375.10 cells, Emax = amount of residual protein remaining in the cell after compound treatment, read-out: HiBit 24 h Emax

Sequence of BRAF^V600E protein (P15056 whole entry V600E): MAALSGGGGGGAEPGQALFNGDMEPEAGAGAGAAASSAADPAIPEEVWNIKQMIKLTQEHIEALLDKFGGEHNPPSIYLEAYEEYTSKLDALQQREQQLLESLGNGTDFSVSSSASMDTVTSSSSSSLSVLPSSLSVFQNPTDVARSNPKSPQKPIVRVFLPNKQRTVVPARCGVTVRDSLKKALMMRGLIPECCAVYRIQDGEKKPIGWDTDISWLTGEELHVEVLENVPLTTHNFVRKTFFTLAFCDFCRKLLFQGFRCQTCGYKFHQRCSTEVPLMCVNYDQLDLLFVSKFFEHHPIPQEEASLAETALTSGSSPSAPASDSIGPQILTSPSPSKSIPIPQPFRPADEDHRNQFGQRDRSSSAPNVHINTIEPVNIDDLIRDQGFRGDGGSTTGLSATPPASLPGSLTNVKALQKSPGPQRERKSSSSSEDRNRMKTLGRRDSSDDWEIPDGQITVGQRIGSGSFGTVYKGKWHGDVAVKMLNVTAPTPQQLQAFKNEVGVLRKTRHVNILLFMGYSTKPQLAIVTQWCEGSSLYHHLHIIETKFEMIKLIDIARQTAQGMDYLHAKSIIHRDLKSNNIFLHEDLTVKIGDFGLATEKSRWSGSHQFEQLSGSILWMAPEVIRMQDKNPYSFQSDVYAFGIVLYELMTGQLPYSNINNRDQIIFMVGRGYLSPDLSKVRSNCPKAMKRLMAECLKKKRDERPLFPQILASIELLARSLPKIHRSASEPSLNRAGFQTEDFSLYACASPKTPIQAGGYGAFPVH

SMILES | DC50 [nM] | Emax [%]
CCN(C)S(=O)(=O)Nc1cccc(C(=O)c2c[nH]c3ncc(-c4cnc(N5CCN(C(=O)CC6(O)CCN(c7ccc(NC8CCC(=O)NC8=O)cc7F)CC6)CC5)nc4)cc23)c1F (stereo not drawn) [Example 101, 5-[2-[4-[2-[1-[4-[(2,6-dioxo-3-piperidyl)amino]-2-fluoro-phenyl]-4-hydroxy-4-piperidyl]acetyl]piperazin-1-yl]pyrimidin-5-yl]-3-[3-[[ethyl(methyl)sulfamoyl]amino]-2-fluoro-benzoyl]-1H-pyrrolo[2,3-b]pyridine] | 3.38 | 10.2
CCN(C)S(=O)(=O)Nc1cccc(C(=O)c2c[nH]c3ncc(-c4cnc(N5CCN(C(=O)CC6(O)CCN(c7ccc(NC8CCC(=O)NC8=O)cc7F)C6)CC5)nc4)cc23)c1F (stereo not drawn) [Example 102, 5-[2-[4-[2-[1-[4-[(2,6-dioxo-3-piperidyl)amino]-2-fluoro-phenyl]-3-hydroxy-pyrrolidin-3-yl]acetyl]piperazin-1-yl]pyrimidin-5-yl]-3-[3-[[ethyl(methyl)sulfamoyl]amino]-2-fluoro-benzoyl]-1H-pyrrolo[2,3-b]pyridine] | 6.88 | 8.28
CCN(C)S(=O)(=O)Nc1cccc(C(=O)c2c[nH]c3ncc(-c4cnc(N5CCN(C(=O)CC6(O)CCN(c7ccc(NC8CCC(=O)NC8=O)cc7Cl)CC6)CC5)nc4)cc23)c1F (stereo not drawn) [Example 103, 5-[2-[4-[2-[1-[2-chloro-4-[(2,6-dioxo-3-piperidyl)amino]phenyl]-4-hydroxy-4-piperidyl]acetyl]piperazin-1-yl]pyrimidin-5-yl]-3-[3-[[ethyl(methyl)sulfamoyl]amino]-2-fluoro-benzoyl]-1H-pyrrolo[2,3-b]pyridine] | 3.04 | 8.98
CCN(C)S(=O)(=O)Nc1cccc(C(=O)c2c[nH]c3ncc(-c4cnc(N5CCN(C(=O)CC6(O)CCN(c7ncc(NC8CCC(=O)NC8=O)cc7F)CC6)CC5)nc4)cc23)c1F (stereo not drawn) [Example 104, 5-[2-[4-[2-[1-[5-[(2,6-dioxo-3-piperidyl)amino]-3-fluoro-2-pyridyl]-4-hydroxy-4-piperidyl]acetyl]piperazin-1-yl]pyrimidin-5-yl]-3-[3-[[ethyl(methyl)sulfamoyl]amino]-2-fluoro-benzoyl]-1H-pyrrolo[2,3-b]pyridine] | 3.37 | 10.8
CCN(C)S(=O)(=O)Nc1cccc(C(=O)c2c[nH]c3ncc(-c4cnc(N5CCN(C(=O)CC6(O)CCN(c7ccc(NC8CCC(=O)NC8=O)cn7)CC6)CC5)nc4)cc23)c1F (stereo not drawn) [Example 105, 5-[2-[4-[2-[1-[5-[(2,6-dioxo-3-piperidyl)amino]-2-pyridyl]-4-hydroxy-4-piperidyl]acetyl]piperazin-1-yl]pyrimidin-5-yl]-3-[3-[[ethyl(methyl)sulfamoyl]amino]-2-fluoro-benzoyl]-1H-pyrrolo[2,3-b]pyridine] | 42.2 | 36.9
CCN(C)S(=O)(=O)Nc1cccc(C(=O)c2c[nH]c3ncc(-c4cnc(N5CCN(C(=O)CC6CCN(c7ccc(NC8CCC(=O)NC8=O)cc7C(F)(F)F)CC6)CC5)nc4)cc23)c1F (stereo not drawn) [Example 106, 5-[2-[4-[2-[1-[4-[(2,6-dioxo-3-piperidyl)amino]-2-(trifluoromethyl)phenyl]-4-piperidyl]acetyl]piperazin-1-yl]pyrimidin-5-yl]-3-[3-[[ethyl(methyl)sulfamoyl]amino]-2-fluoro-benzoyl]-1H-pyrrolo[2,3-b]pyridine] | 34.8 | 11.5
CCN(C)S(=O)(=O)Nc1cccc(C(=O)c2c[nH]c3ncc(-c4ccc(N5CCN(C(=O)CN6CCC(c7ccc(NC8CCC(=O)NC8=O)cc7)CC6)CC5)nc4)cc23)c1F (stereo not drawn) [Example 107, 5-[6-[4-[2-[4-[4-[(2,6-dioxo-3-piperidyl)amino]phenyl]-1-piperidyl]acetyl]piperazin-1-yl]-3-pyridyl]-3-[3-[[ethyl(methyl)sulfamoyl]amino]-2-fluoro-benzoyl]-1H-pyrrolo[2,3-b]pyridine] | 3.08 | 7.97
CCN(C)S(=O)(=O)Nc1cccc(C(=O)c2c[nH]c3ncc(-c4ccc(N5CCN(C(=O)CN6CCC(c7ccc(OC8CCC(=O)NC8=O)cc7)CC6)CC5)nc4)cc23)c1F (stereo not drawn) [Example 108, 5-[6-[4-[2-[4-[4-[(2,6-dioxo-3-piperidyl)oxy]phenyl]-1-piperidyl]acetyl]piperazin-1-yl]-3-pyridyl]-3-[3-[[ethyl(methyl)sulfamoyl]amino]-2-fluoro-benzoyl]-1H-pyrrolo[2,3-b]pyridine] | 5.6 | 11.4
CCN(C)S(=O)(=O)Nc1cccc(C(=O)c2c[nH]c3ncc(-c4ccc(N5CCN(C(=O)CC6(O)CCN(c7ccc(NC8CCC(=O)NC8=O)cc7)CC6)CC5)nc4)cc23)c1F (stereo not drawn) [Example 109, 5-[6-[4-[2-[1-[4-[(2,6-dioxo-3-piperidyl)amino]phenyl]-4-hydroxy-4-piperidyl]acetyl]piperazin-1-yl]-3-pyridyl]-3-[3-[[ethyl(methyl)sulfamoyl]amino]-2-fluoro-benzoyl]-1H-pyrrolo[2,3-b]pyridine] | 5.49 | 10.8
CCN(C)S(=O)(=O)Nc1cccc(C(=O)c2c[nH]c3ncc(-c4ccc(N5CCN(C(=O)CN6CCC(c7ccc(NC8CCC(=O)NC8=O)cc7)C(F)(F)C6)CC5)nc4)cc23)c1F (stereo not drawn) [Example 110, 5-[6-[4-[2-[4-[4-[(2,6-dioxo-3-piperidyl)amino]phenyl]-3,3-difluoro-1-piperidyl]acetyl]piperazin-1-yl]-3-pyridyl]-3-[3-[[ethyl(methyl)sulfamoyl]amino]-2-fluoro-benzoyl]-1H-pyrrolo[2,3-b]pyridine] | 4.47 | 7.75
CCN(C)S(=O)(=O)Nc1cccc(C(=O)c2c[nH]c3ncc(-c4ccc(N5CCN(C(=O)CC6CCN(c7ccc(NC8CCC(=O)NC8=O)cc7F)CC6)CC5)nc4)cc23)c1F (stereo not drawn) [Example 111, 5-[6-[4-[2-[1-[4-[(2,6-dioxo-3-piperidyl)amino]-2-fluoro-phenyl]-4-piperidyl]acetyl]piperazin-1-yl]-3-pyridyl]-3-[3-[[ethyl(methyl)sulfamoyl]amino]-2-fluoro-benzoyl]-1H-pyrrolo[2,3-b]pyridine] | 9.66 | 15.6
CCN(C)S(=O)(=O)Nc1cccc(C(=O)c2c[nH]c3ncc(-c4ccc(N5CCN(C(=O)CC6(O)CCN(c7ccc(NC8CCC(=O)NC8=O)cc7F)CC6)CC5)nc4)cc23)c1F (stereo not drawn) [Example 112, 5-[6-[4-[2-[1-[4-[(2,6-dioxo-3-piperidyl)amino]-2-fluoro-phenyl]-4-hydroxy-4-piperidyl]acetyl]piperazin-1-yl]-3-pyridyl]-3-[3-[[ethyl(methyl)sulfamoyl]amino]-2-fluoro-benzoyl]-1H-pyrrolo[2,3-b]pyridine] | 6.46 | 10.8
CCN(C)S(=O)(=O)Nc1cccc(C(=O)c2c[nH]c3ncc(-c4ccc(N5CCN(C(=O)CC6(O)CCN(c7ccc(NC8CCC(=O)NC8=O)cn7)CC6)CC5)nc4)cc23)c1F (stereo not drawn) [Example 113, 5-[6-[4-[2-[1-[5-[(2,6-dioxo-3-piperidyl)amino]-2-pyridyl]-4-hydroxy-4-piperidyl]acetyl]piperazin-1-yl]-3-pyridyl]-3-[3-[[ethyl(methyl)sulfamoyl]amino]-2-fluoro-benzoyl]-1H-pyrrolo[2,3-b]pyridine] | 26.3 | 27.7
CCN(C)S(=O)(=O)Nc1cccc(C(=O)c2c[nH]c3ncc(-c4ccc(N5CCN(C(=O)CC6(O)CCN(c7ccc(NC8CCC(=O)NC8=O)cc7F)C6)CC5)nc4)cc23)c1F (stereo not drawn) [Example 114, 5-[6-[4-[2-[1-[4-[(2,6-dioxo-3-piperidyl)amino]-2-fluoro-phenyl]-3-hydroxy-pyrrolidin-3-yl]acetyl]piperazin-1-yl]-3-pyridyl]-3-[3-[[ethyl(methyl)sulfamoyl]amino]-2-fluoro-benzoyl]-1H-pyrrolo[2,3-b]pyridine] | 2.29 | 10.9
CCN(C)S(=O)(=O)Nc1cccc(C(=O)c2c[nH]c3ncc(-c4ccc(N5CCN(C(=O)CC6(O)CCN(c7ncc(NC8CCC(=O)NC8=O)cc7F)CC6)CC5)nc4)cc23)c1F (stereo not drawn) [Example 115, 5-[6-[4-[2-[1-[5-[(2,6-dioxo-3-piperidyl)amino]-3-fluoro-2-pyridyl]-4-hydroxy-4-piperidyl]acetyl]piperazin-1-yl]-3-pyridyl]-3-[3-[[ethyl(methyl)sulfamoyl]amino]-2-fluoro-benzoyl]-1H-pyrrolo[2,3-b]pyridine] | 5.13 | 12.2
CCN(C)S(=O)(=O)Nc1cccc(C(=O)c2c[nH]c3ncc(-c4ccc(N5CCN(C(=O)CC6(O)CCN(c7ccc(NC8CCC(=O)NC8=O)cc7)CC6)CC5)cc4)cc23)c1F (stereo not drawn) [Example 116, 5-[4-[4-[2-[1-[4-[(2,6-dioxo-3-piperidyl)amino]phenyl]-4-hydroxy-4-piperidyl]acetyl]piperazin-1-yl]phenyl]-3-[3-[[ethyl(methyl)sulfamoyl]amino]-2-fluoro-benzoyl]-1H-pyrrolo[2,3-b]pyridine] | 5.32 | 13.4
CCN(C)S(=O)(=O)Nc1cccc(C(=O)c2c[nH]c3ncc(-c4ccc(N5CCN(C(=O)CC6(O)CCN(c7ccc(NC8CCC(=O)NC8=O)cn7)CC6)CC5)cc4)cc23)c1F (stereo not drawn) [Example 117, 5-[4-[4-[2-[1-[5-[(2,6-dioxo-3-piperidyl)amino]-2-pyridyl]-4-hydroxy-4-piperidyl]acetyl]piperazin-1-yl]phenyl]-3-[3-[[ethyl(methyl)sulfamoyl]amino]-2-fluoro-benzoyl]-1H-pyrrolo[2,3-b]pyridine] | 23.1 | 25.3
CCN(C)S(=O)(=O)Nc1cccc(C(=O)c2c[nH]c3ncc(-c4ccc(N5CCN(C(=O)CC6(O)CCN(c7ccc(NC8CCC(=O)NC8=O)cc7F)C6)CC5)cc4)cc23)c1F (stereo not drawn) [Example 118, 5-[4-[4-[2-[1-[4-[(2,6-dioxo-3-piperidyl)amino]-2-fluoro-phenyl]-3-hydroxy-pyrrolidin-3-yl]acetyl]piperazin-1-yl]phenyl]-3-[3-[[ethyl(methyl)sulfamoyl]amino]-2-fluoro-benzoyl]-1H-pyrrolo[2,3-b]pyridine] | 27.2 | 13.4
